Source: PubChem BioAssay AID2060623 (Molecular Pharmacology Branch, DTP, NCI, 2025)

System: 227483-062-R1-J1-PDC complex spheroids with HUVEC/MSC, viability
Test: Anticancer human tumor 227483-062-R1-J1-PDC patient-derived pancreatic carcinoma cell line growth inhibition [CLK]
Settings: for IC50: curve of first compound; for viability, T/C: stronger effect = lower value; active = viability on the fitted dose curve at most 10% of control; inactive = the rest
Procedure, shortened: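 Patient-derived tumor cells grown as complex spheroids with HUVEC endothelial cells and mesenchymal stem cells, treated with drug combinations. Concentrations descend in half-log steps from near clinical Cmax, or from 10 microM if Cmax unknown.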

[1] = second compound 0.0316 µM, first compound 0.00316 µM
[2] = second compound 0.0316 µM, first compound 0.01 µM
[3] = second compound 0.0316 µM, first compound 0.0316 µM
[4] = second compound 0.0316 µM, first compound 0.1 µM
[5] = second compound 0.1 µM, first compound 0.00316 µM
[6] = second compound 0.1 µM, first compound 0.01 µM
[7] = second compound 0.1 µM, first compound 0.0316 µM
[8] = second compound 0.1 µM, first compound 0.1 µM
[9] = second compound 0.316 µM, first compound 0.00316 µM
[10] = second compound 0.316 µM, first compound 0.01 µM
[11] = second compound 0.316 µM, first compound 0.0316 µM
[12] = second compound 0.316 µM, first compound 0.1 µM
[13] = second compound 1 µM, first compound 0.00316 µM
[14] = second compound 1 µM, first compound 0.01 µM
[15] = second compound 1 µM, first compound 0.0316 µM
[16] = second compound 1 µM, first compound 0.1 µM
[17] = second compound 3.16 µM, first compound 0.00316 µM
[18] = second compound 3.16 µM, first compound 0.01 µM
[19] = second compound 3.16 µM, first compound 0.0316 µM
[20] = second compound 3.16 µM, first compound 0.1 µM
[21] = second compound 10 µM, first compound 0.00316 µM
[22] = second compound 10 µM, first compound 0.01 µM
[23] = second compound 10 µM, first compound 0.0316 µM
[24] = second compound 10 µM, first compound 0.1 µM
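Note: spheroids exposed to compounds for seven days before readout.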
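Throughout, for viability, T/C: percent of DMSO vehicle control luminescence as 100% viability.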

CCc1c2c(nc3ccc(O)cc13)-c1cc3c(c(=O)n1C2)COC(=O)[C@]3(O)CC + CNC(=O)c1ccc(Nc2nc(OC3CCCC3)c3c(-c4ccc5nc(C)oc5c4)c[nH]c3n2)c(OC)c1
inactive: viability, T/C [1] 121% | viability, T/C [2] 96.1% | viability, T/C [3] 81.2% | viability, T/C [4] 60.5% | viability, T/C (second compound 0.0316 µM, first compound 0.316 µM) 41.5% | viability, T/C (second compound 0.0316 µM, first compound 1 µM) 32.5% | viability, T/C [5] 111% | viability, T/C [6] 97.1% | viability, T/C [7] 69.3% | viability, T/C [8] 64.4% | viability, T/C (second compound 0.1 µM, first compound 0.316 µM) 42.1% | viability, T/C (second compound 0.1 µM, first compound 1 µM) 19.8% | viability, T/C [9] 65.2% | viability, T/C [10] 84.3% | viability, T/C [11] 62.2% | viability, T/C [12] 37.8% | viability, T/C (second compound 0.316 µM, first compound 0.316 µM) 24.1% | viability, T/C [13] 61.2% | viability, T/C [14] 54% | viability, T/C [15] 34.1% | viability, T/C [16] 19.4% | viability, T/C [17] 44% | viability, T/C [18] 35.2% | viability, T/C [19] 24.2% | viability, T/C [20] 12.6% | viability, T/C [21] 33.4% | viability, T/C [22] 32.4% | viability, T/C [23] 17.1% | viability, T/C [24] 11.4%
176 nM: IC50 (second compound 0.1 µM)
11.4 nM: IC50 (second compound 1 µM)
< 3.16 nM: IC50 (second compound 3.16 µM) | IC50 (second compound 10 µM)
64 nM: IC50 (second compound 0.316 µM)
active: viability, T/C (second compound 0.316 µM, first compound 1 µM) 5.82% | viability, T/C (second compound 1 µM, first compound 0.316 µM) 10.4% | viability, T/C (second compound 1 µM, first compound 1 µM) 1.96% | viability, T/C (second compound 3.16 µM, first compound 0.316 µM) 7.58% | viability, T/C (second compound 3.16 µM, first compound 1 µM) 2.02% | viability, T/C (second compound 10 µM, first compound 0.316 µM) 6.34% | viability, T/C (second compound 10 µM, first compound 1 µM) 2.19%
205 nM: IC50 (second compound 0.0316 µM)

Cn1ncnc1[C@H]1c2n[nH]c(=O)c3cc(F)cc(c23)N[C@@H]1c1ccc(F)cc1 + CNC(=O)c1ccc(Nc2nc(OC3CCCC3)c3c(-c4ccc5nc(C)oc5c4)c[nH]c3n2)c(OC)c1
inactive: viability, T/C (second compound 0.0316 µM, first compound 0.000316 µM) 87.5% | viability, T/C (second compound 0.0316 µM, first compound 0.001 µM) 111% | viability, T/C [1] 118% | viability, T/C [2] 100% | viability, T/C [3] 89.1% | viability, T/C [4] 97.1% | viability, T/C (second compound 0.1 µM, first compound 0.000316 µM) 111% | viability, T/C (second compound 0.1 µM, first compound 0.001 µM) 120% | viability, T/C [5] 106% | viability, T/C [6] 97.4% | viability, T/C [7] 97% | viability, T/C [8] 109% | viability, T/C (second compound 0.316 µM, first compound 0.000316 µM) 105% | viability, T/C (second compound 0.316 µM, first compound 0.001 µM) 84.2% | viability, T/C [9] 78.5% | viability, T/C [10] 94.4% | viability, T/C [11] 94.4% | viability, T/C [12] 70.4% | viability, T/C (second compound 1 µM, first compound 0.000316 µM) 69% | viability, T/C (second compound 1 µM, first compound 0.001 µM) 59.7% | viability, T/C [13] 59.8% | viability, T/C [14] 67.4% | viability, T/C [15] 71.9% | viability, T/C [16] 58% | viability, T/C (second compound 3.16 µM, first compound 0.000316 µM) 40.7% | viability, T/C (second compound 3.16 µM, first compound 0.001 µM) 44.9% | viability, T/C [17] 51.2% | viability, T/C [18] 48.5% | viability, T/C [19] 49.4% | viability, T/C [20] 41.3% | viability, T/C (second compound 10 µM, first compound 0.000316 µM) 40.5% | viability, T/C (second compound 10 µM, first compound 0.001 µM) 39.3% | viability, T/C [21] 36.5% | viability, T/C [22] 34.2% | viability, T/C [23] 41% | viability, T/C [24] 29.3%
< 0.316 nM: IC50 (second compound 3.16 µM) | IC50 (second compound 10 µM)
> 100 nM: IC50 (second compound 0.0316 µM) | IC50 (second compound 0.1 µM) | IC50 (second compound 0.316 µM) | IC50 (second compound 1 µM)
